Data: PubChem BioAssay AID1508612

Assay: passive permeability, PAMPA, ADME assay (AID 1508612)
Conditions: pH 7.4, 30.0 min, 50.0 µM

Row | SMILES | Papp
1 | COc1ccc(CNc2ccc(S(=O)(=O)Nc3nccs3)cc2)c(O)c1 | < 1 ×10⁻⁶ cm/s
2 | Cc1ccc(-c2nn(C(C)(C)C)c3ncnc(N)c23)cc1 | 825 ×10⁻⁶ cm/s
3 | Nc1ccccc1CNc1ccc(S(=O)(=O)Nc2nccs2)cc1 | 1.09 ×10⁻⁶ cm/s
4 | O=C1Nc2cccc(Cl)c2/C1=C\c1cc(Cl)c(O)c(Cl)c1 | 93.9 ×10⁻⁶ cm/s
5 | CCOc1ccc(CCNC(=O)c2cc3ccccc3n2C)cc1OCC | > 1000 ×10⁻⁶ cm/s
6 | CC(=O)Nc1ccc(NC(=O)C(NS(=O)(=O)c2ccc(Br)s2)c2ccccc2)cc1 (stereo not drawn) | 224 ×10⁻⁶ cm/s
7 | Cc1cccc(Nc2nc(NCc3ccco3)c3ccccc3n2)c1 | 730 ×10⁻⁶ cm/s
8 | CNc1nc(C#N)c(-c2cccc3ccccc23)o1 | > 1000 ×10⁻⁶ cm/s
9 | Oc1ccc(CNc2ccccc2C(F)(F)F)c2cccnc12 | 17 ×10⁻⁶ cm/s
10 | Cc1cc(NS(=O)(=O)c2ccc(NC(=O)Cc3ccc(F)c(Cl)c3)cc2)no1 | 10.4 ×10⁻⁶ cm/s
11 | O=C(CSc1ccccc1)Nc1nnc(COc2ccc(Cl)cc2)s1 | 498 ×10⁻⁶ cm/s
12 | CCC(C)N(C)C(=O)c1cc2ccccc2c(-c2ccccc2Cl)n1 (stereo not drawn) | > 1000 ×10⁻⁶ cm/s
13 | CN1CCCN(C(c2ccccc2)c2ccc(Cl)cc2)CC1 (stereo not drawn) | 652 ×10⁻⁶ cm/s
14 | COc1ccccc1CNc1ccc(S(=O)(=O)Nc2nccs2)cc1 | 512 ×10⁻⁶ cm/s
15 | CCOc1ccc(CNc2ccc3c(c2)ncn3C)cc1 | > 1000 ×10⁻⁶ cm/s
16 | COc1ccnc(NC(=S)N2CCN(c3cccc(C(F)(F)F)c3)CC2)c1 | 417 ×10⁻⁶ cm/s
17 | Cn1ccc2c(C(=O)NCc3cccnc3)nc(-c3ccc(CO)cc3)cc21 | 317 ×10⁻⁶ cm/s
18 | COC(=O)Nc1nc2ccc(SC(C)C)cc2[nH]1 | 433 ×10⁻⁶ cm/s
19 | C#CC1(O)CCC2C3CCC4=C/C(=N/OCC(=O)NCC(=O)NC(C(=O)O)C(C)C)CC[C@]4(C)C3CC[C@@]21C (stereo partly drawn) | 4.52 ×10⁻⁶ cm/s
20 | Cc1cc(-c2cc3c(nc2-c2ccccc2)nc(C(=O)NCCN(C)C)n3C)ccn1 | 320 ×10⁻⁶ cm/s
21 | COC(=O)CNC(=O)c1nc(-c2ccc(F)cc2)c2ccccn12 | > 1000 ×10⁻⁶ cm/s
22 | CCCCC(C)/C=C(C)/C=C(\C)C(=O)NC1=CC(O)(/C=C/C=C/C=C/C(=O)NC2=C(O)CCC2=O)C2OC2C1=O (stereo not drawn) | 955 ×10⁻⁶ cm/s

Row | SMILES | Papp
23 | NC(=O)C1CCN(c2nc(-c3ccccc3-c3ccccc3)cs2)CC1 | 606 ×10⁻⁶ cm/s
24 | Cc1ccnc(NC(=S)N2CCN(c3ccc(Cl)c(Cl)c3)CC2)c1 | > 1000 ×10⁻⁶ cm/s
25 | Cc1ccc(S(=O)(=O)Nc2cc(C(=O)Nc3nc(-c4ccccc4)cs3)ccn2)cc1 | 259 ×10⁻⁶ cm/s
26 | NC(=O)C1CCN(c2nc(-c3ccccc3C(F)(F)F)cs2)CC1 | 544 ×10⁻⁶ cm/s
27 | COc1ccc(S(=O)(=O)N2CCN(C(=O)C3COc4ccccc4O3)CC2)cc1 (stereo not drawn) | > 1000 ×10⁻⁶ cm/s
28 | CC[C@@H](C)Nc1cc(C(=O)NC2CC3CCC(C2)N3c2ccc(C(=O)C3CC3)cn2)c(C)cc1C(N)=O (stereo partly drawn) | > 1000 ×10⁻⁶ cm/s
29 | COc1cc2c(cc1OC)C(C[C@H]1CN(S(=O)(=O)c3cccc(C#N)c3)CC[C@H]1CC(=O)O)=NCC2 | 3.25 ×10⁻⁶ cm/s
30 | Cc1ccc(-n2c(C)cc(-c3nnc4n3CCCCC4)c2C)cc1 | > 1000 ×10⁻⁶ cm/s
31 | COc1cc2nc(N3CCCC3)nc(NCCCCCN3CCCC3)c2cc1OC | 2.4 ×10⁻⁶ cm/s
32 | COc1ccc(S(=O)(=O)N(CC(=O)Nc2ccc(C)cc2)c2ccc(C)cc2)cc1OC | > 1000 ×10⁻⁶ cm/s
33 | O=[N+]([O-])c1ccc(/C=N/n2c(CO)nc3ccccc32)s1 | 269 ×10⁻⁶ cm/s
34 | O=C(c1cnc(N2CCCCC2)c2ccccc12)N1CCN(c2ccccn2)CC1 | > 1000 ×10⁻⁶ cm/s
35 | CN1C[C@@H]2C[C@H]1CN2c1cc2c(cc1F)c(=O)c(C(=O)O)cn2C1CC1 | < 1 ×10⁻⁶ cm/s
36 | COC(=O)c1ccc([C@H]2c3[nH]c4ccccc4c3C[C@H](C(=O)OC)N2C(=O)CCl)cc1 | > 1000 ×10⁻⁶ cm/s
37 | Fc1ccccc1Nc1nc(-c2ccncc2)nc2ccccc12 | 839 ×10⁻⁶ cm/s
38 | COc1ccc(-c2csc(CCn3nc(C)c4c(C(F)(F)F)cc(=O)[nH]c43)n2)cc1 | 825 ×10⁻⁶ cm/s
39 | Cc1cc(NS(=O)(=O)c2ccc(NCCc3ccc(Cl)c(Cl)c3)cc2)no1 | 406 ×10⁻⁶ cm/s
40 | FC(F)(F)c1ccccc1-c1nc(NCc2cccs2)c2ccccc2n1 | > 1000 ×10⁻⁶ cm/s
41 | COC(=O)c1ccnc(-c2cc(C(=O)NCCc3ccccc3)ccn2)c1 | 398 ×10⁻⁶ cm/s
42 | COC(=O)[C@H](Cc1ccc(O[S+](=O)([O-])c2cccc3cnccc23)cc1)N[S+](=O)([O-])c1ccc2cnccc2c1 | > 1000 ×10⁻⁶ cm/s
43 | COc1ccc(OC)c(-c2nnc3ccc(-c4ccc(OC)c(O[C@@H]5CCOC5)c4)nn23)c1 | 877 ×10⁻⁶ cm/s
44 | CC(C)CNc1ncnc2onc(-c3ccc(Cl)cc3)c12 | > 1000 ×10⁻⁶ cm/s

Row | SMILES | Papp
45 | CCc1[nH]c2ccc(CNC(=O)Cc3cnc4c(C)cccn34)cc2c1C | 405 ×10⁻⁶ cm/s
46 | CC(=O)c1c(C)oc2ccc(N(C(=O)Oc3ccccc3)S(=O)(=O)c3ccccc3)cc12 | > 1000 ×10⁻⁶ cm/s
47 | Cn1c(CN2CCCCC2)nc2cc(NC(=O)c3cccc(Br)c3)ccc21 | > 1000 ×10⁻⁶ cm/s
48 | COc1ccccc1-c1csc(N2CCC(C(N)=O)CC2)n1 | 693 ×10⁻⁶ cm/s
49 | COc1cccc(C(=O)Nc2nnc(S(=O)(=O)N3CCOCC3)s2)c1 | 19.2 ×10⁻⁶ cm/s
50 | CCOC(=O)c1ccc(-c2ccc3ncnc(NCCc4cnc[nH]4)c3c2)o1 | > 1000 ×10⁻⁶ cm/s
51 | COc1ccc(CCn2c(N)cc(=O)[nH]c2=S)cc1OC | 7.34 ×10⁻⁶ cm/s
52 | CC1=C(C(=O)Nc2ccc(Cl)cc2)C(c2ccccc2C)n2ncc(C(=O)Nc3ccc(C)cc3)c2N1 (stereo not drawn) | 10.1 ×10⁻⁶ cm/s
53 | CCCc1c(CC)c(=N)c2ccccc2n1C | 6.67 ×10⁻⁶ cm/s
54 | O=C(Nc1ccc([S+](=O)([O-])Nc2nccs2)cc1)c1ccn[nH]1 | < 1 ×10⁻⁶ cm/s
55 | Cc1sc2c(c1C)C(c1ccc(Cl)cc1)=N[C@@H](CC(=O)OC(C)(C)C)c1nnc(C)n1-2 | > 1000 ×10⁻⁶ cm/s
56 | Cc1ccc(S(=O)(=O)Nc2cc3c(cc2C(=O)Nc2nc(-c4ccccc4)cs2)OCO3)cc1 | 19.3 ×10⁻⁶ cm/s
57 | NS(=O)(=O)c1ccc(NC(=O)c2cc3ncccn3n2)cc1 | 82.5 ×10⁻⁶ cm/s
58 | CC(C)c1ccccc1-c1ncc(F)c(NCC2CCN(c3cnccn3)C2)n1 (stereo not drawn) | > 1000 ×10⁻⁶ cm/s
59 | COc1cccc(CNc2ccc(C(=O)Nc3nccs3)cc2)c1O | > 1000 ×10⁻⁶ cm/s
60 | Nc1cc2nc3ccccc3oc-2cc1=O | 106 ×10⁻⁶ cm/s
61 | Nc1nc2c(s1)C(c1ccc(Br)cc1)CC(=O)N2 (stereo not drawn) | 297 ×10⁻⁶ cm/s
62 | Cn1c2ccccc2c(=O)c2c(=O)n(-c3ccccc3)c(C3CCCCC3)nc21 | 440 ×10⁻⁶ cm/s
63 | O=C(NC1CC1)c1nc(-c2cccnc2)c2cnccn12 | 31.8 ×10⁻⁶ cm/s
64 | COc1ccc(NC2=C(c3ccc(C(F)(F)F)cc3)C(=O)c3ccccc32)cc1 | 82 ×10⁻⁶ cm/s
65 | O=c1cc(-c2ccccc2)oc2cc(O)cc(O)c12 | 452 ×10⁻⁶ cm/s
66 | CCOc1ccc(NC(=O)c2cccc(-n3cccc3)c2)cc1S(=O)(=O)N1CCOCC1 | 80.4 ×10⁻⁶ cm/s

Row | SMILES | Papp
67 | NC1(c2ccc(NC(=O)c3ccnc(-c4cc(C(=O)O)ccn4)c3)cc2)CC1 | 8.31 ×10⁻⁶ cm/s
68 | CC(=O)c1cccc(-c2csc3ncnc(Sc4nnnn4C)c23)c1 | 239 ×10⁻⁶ cm/s
69 | O=C1C2=C(Nc3ccccc3SC2c2ccco2)c2ccccc21 (stereo not drawn) | 371 ×10⁻⁶ cm/s
70 | CSc1nn(Cc2cccc(C)c2)c(N)c1S(=O)(=O)c1ccccc1 | 516 ×10⁻⁶ cm/s
71 | Cc1ccccc1-c1nc(CN2CCC(C(=O)NCCCN3CCOCC3)CC2)c(C)o1 | 432 ×10⁻⁶ cm/s
72 | Cc1cccc(C)c1NC(=O)c1nc(SC(C)C)ncc1Cl | > 1000 ×10⁻⁶ cm/s
73 | NC(=O)C1CCN(c2nccc(-c3ccc(Br)cc3)n2)CC1 | 360 ×10⁻⁶ cm/s
74 | O=C(NCc1ccccc1)c1cn2cc(-c3ccccc3)sc2n1 | > 1000 ×10⁻⁶ cm/s
75 | O=C(Nc1nnc(-c2ccco2)o1)c1ccc(Cl)cc1 | 24.2 ×10⁻⁶ cm/s
76 | CN(C)c1cccc(-c2cc(N3CCC(C(N)=O)CC3)ncn2)c1 | 37.8 ×10⁻⁶ cm/s
77 | CCOc1ccc(CCNC(=O)c2cc3sccc3n2Cc2ccccn2)cc1OCC | > 1000 ×10⁻⁶ cm/s
78 | CCN1C(=O)c2ccccc2S(=O)c2ccc(C(=O)NCc3ccccc3)cc21 (stereo not drawn) | 775 ×10⁻⁶ cm/s
79 | Fc1cc(Nc2nc(-c3ccncc3)nc3ccccc23)ccc1-c1cccnc1 | 5.4 ×10⁻⁶ cm/s
80 | Cc1cc(NS(=O)(=O)c2ccc(NC(=O)Cc3ccc(Cl)c(Cl)c3)cc2)no1 | 30.2 ×10⁻⁶ cm/s
81 | CCn1cc(C(=O)N2CCN(c3cccc(Cl)c3)CC2)c2cc(OC)c(OC)cc2c1=O | 833 ×10⁻⁶ cm/s
82 | NC(CO)(CO)CCc1ccc(Sc2cccc(OCc3ccccc3)c2)cc1Cl | 210 ×10⁻⁶ cm/s
83 | Cc1nc2ccc(NC(=O)c3cc(S(=O)(=O)N(C)c4ccccc4)ccc3Cl)cc2s1 | 70 ×10⁻⁶ cm/s
84 | Cc1ccc(S(=O)(=O)NCCC(=O)Nc2nc(-c3ccccc3)cs2)cc1 | 861 ×10⁻⁶ cm/s
85 | CCOC(=O)c1ccc2c(c1)c(C(C)=O)c(C)n2-c1ccc(OC)cc1 | > 1000 ×10⁻⁶ cm/s
86 | COC(=O)c1ccc2c(c1)nc1n2[C@@H](CNC(C)=O)COC1 | 4.45 ×10⁻⁶ cm/s
87 | NC(=O)C1CCN(c2nc(-c3ccccc3N)cs2)CC1 | 136 ×10⁻⁶ cm/s
88 | CC(=O)c1ccc(N[S+](=O)([O-])c2cccc(NC(=O)c3[nH]c(C)c(C(C)=O)c3C)c2)cc1 | < 1 ×10⁻⁶ cm/s

Row | SMILES | Papp
89 | O=C(Nc1cccc(OC(F)(F)F)c1)c1cc(-c2ccc[nH]2)n[nH]1 | 26.6 ×10⁻⁶ cm/s
90 | COc1cccc(C(=O)Nc2ccc3oc(-c4ccc5ccccc5c4)nc3c2)c1 | 533 ×10⁻⁶ cm/s
91 | CCOc1ccc(CCN(C)C(=O)c2cc3sccc3n2Cc2ccccc2)cc1OCC | > 1000 ×10⁻⁶ cm/s
92 | CC1=C(C(=O)NC2CCCCC2)C(c2ccccc2Br)N=C(Nc2nc3ccccc3o2)N1 (stereo not drawn) | 734 ×10⁻⁶ cm/s
93 | Fc1cc(Nc2nc(-c3ccncc3)nc3ccccc23)ccc1-c1ccncc1 | 15.4 ×10⁻⁶ cm/s
94 | CNC(=O)c1cccc(-c2cnc(Nc3cccc(C(F)(F)F)c3)c3c2CCO3)c1 | 58.9 ×10⁻⁶ cm/s
95 | Cc1ccc(S(=O)(=O)Nc2cnccc2C(=O)NCCc2ccccc2)cc1 | 20.3 ×10⁻⁶ cm/s
96 | Cc1ccccc1S(=O)(=O)N1CCCC(CCC(=O)NCCN(C)C2CCCCC2)C1 (stereo not drawn) | > 1000 ×10⁻⁶ cm/s
97 | CCCOC(c1cc2nccc(C(=O)O)c2[nH]1)c1ccccc1Cl (stereo not drawn) | 12.9 ×10⁻⁶ cm/s
98 | NC(=O)C1CCN(c2nc(-c3ccc(OCc4ccccc4)cc3)cs2)CC1 | < 1 ×10⁻⁶ cm/s
99 | COc1ccc2c(ccn2CCC(=O)Nc2ccc3c(c2)C(=O)N2CCC[C@H]2C(=O)N3)c1 | 22.6 ×10⁻⁶ cm/s
100 | COc1ccc(O)c(CNc2ccc(S(=O)(=O)Nc3nccs3)cc2)c1 | 3.74 ×10⁻⁶ cm/s
101 | O=C(CSc1nc(-c2ccc(F)cc2)[nH]c1-c1ccc(F)cc1)Nc1ccc2c(c1)OCCO2 | 11 ×10⁻⁶ cm/s
102 | Cc1ccccc1C(=O)N1CCc2cc(-c3nc(NC(=O)Cc4ccc5c(c4)OCCO5)sc3C)ccc21 | 761 ×10⁻⁶ cm/s
103 | Cc1cccc2nc(NC3=NC(c4[nH]ncc4Cl)C4=C(CCCC4=O)N3)oc12 (stereo not drawn) | 624 ×10⁻⁶ cm/s
104 | Cc1cc(C)nc(NC(=S)N2CCN(c3ccc4nsnc4c3)CC2)c1 | 707 ×10⁻⁶ cm/s
105 | C#CCNC(=O)c1nc(-c2ccc([S+](C)(=O)[O-])cc2)c2ccccn12 | 545 ×10⁻⁶ cm/s
106 | O=C1Nc2ccc(Cl)cc2/C1=C\c1cc(Cl)c(O)c(Cl)c1 | 69.5 ×10⁻⁶ cm/s
107 | COc1ccc(NC(=O)c2cc(-c3ccc[nH]3)n[nH]2)cc1OC | 120 ×10⁻⁶ cm/s
108 | CC[C@@]1(O)C(=O)OCc2c1cc1n(c2=O)Cc2c-1nc1ccccc1c2CCNC(C)C | < 1 ×10⁻⁶ cm/s
